Data as given in PMC9845330 (Communications Biology, 2023).
Non-standard residues stand in square brackets, D forms with d. Residues, ends and D or L forms follow the SMILES beside them. *: point of attachment. X1 = O=C(CCCC[C@@H]1SC[C@@H]2NC(=O)N[C@@H]21)NCCCOCCOCCOCCCN*; PEG12 = NCCOCCOCCOCCOCCOCCOCCOCCOCCOCCOCCOCCOCCC(=O)O

Tested on: HBEC cells
Experiment: In vitro saporin delivery, cell viability (CellTiter-GLO)
Format: cell-based, human
Conditions: saporin conjugate, 6 h exposure, viability at 72 h
Method: The ability of MGS4_V8-saporin conjugate to induce cell death was determined.
Biotinylated peptide was conjugated to streptavidin-saporin (Advanced Targeting Systems Bio, San Diego, CA) in a 1:1 molar ratio. Increasing doses of peptide-drug conjugate in triplicate were incubated on the cells for 6 h at 37 °C. The drug was removed and replaced with complete growth media. After 72 h, cell viability was measured using CellTiter-GLO® (Promega, Madison, WI). Cell viability was normalized to untreated cells. IC50s were calculated using GraphPad Prism® using log(agonist) vs. response–Variable slope (four parameters). […]
M GS4_V4 (non-acetylated, panel a) and M GS4_V8 (acetylated, panel b ) were incubated in 100% human serum for 0 and 48-hours. Serum proteins were precipitated, and the peptide was analyzed by analytical
HPLC. The mass of the peptide and degradation products were determined by MALDI MS and are […]
MGS4_V8, MGS4_V9, or MGS4_V10 were conjugated with streptavidin-Alexa Fluor 650 and were incubated with the indicated cell line for 1 hour. Non-internalized peptide was rem ov ed, and the mean number of peptides internalized per cell was determined to calculate the EC50. […]
Supplemental Figure 4 : Peptide-Streptavidin conjugates are nontoxic to cells. a. […] After 72 hours, viability was measured. […]

`CC(=O)N[C@@H](Cc1ccccc1)C(=O)N[C@@H](Cc1c[nH]cn1)C(=O)N[C@@H](C)C(=O)N[C@H](C(=O)N1CCC[C@H]1C(=O)N[C@@H](CCC(N)=O)C(=O)N[C@@H](CO)C(=O)N[C@@H](Cc1ccccc1)C(=O)N[C@@H](Cc1ccc(O)cc1)C(=O)N[C@H](C(=O)NCCOCCOCCOCCOCCOCCOCCOCCOCCOCCOCCOCCOCCC(=O)N[C@@H](CCC(=O)NCCCOCCOCCOCCCNC(=O)CCCC[C@@H]1SC[C@@H]2NC(=O)N[C@@H]21)C(N)=O)[C@@H](C)O)C(C)C` [MGS4_V8] (Ac-FHAVPQSFYT[PEG12]E(X1)-NH2) was tested, and the IC50 was “do not reach 50% cell viability”.
